Reference: patent publication US9353082B2, “Pharmaceutical compounds” (BIAL—PORTELA & CA, S.A., priority 2008, dated 2016)

Tests used:
[1] = target: T1, FAAH (Rattus norvegicus, UniProt P97612); assay: In vitro FAAH activity in rat brain membranes, 3H-AEA substrate, % of control; format: biochemical, Wistar rats; conditions: rat brain membranes, compound at 100 nM, low value = strong inhibitor
T1 construct: Frozen brains (without cerebellum) from Wistar rats were used; from tissue; host or cells: Wistar rat brain (without cerebellum), washed membrane pellets
T1 sequence (P97612 1-579): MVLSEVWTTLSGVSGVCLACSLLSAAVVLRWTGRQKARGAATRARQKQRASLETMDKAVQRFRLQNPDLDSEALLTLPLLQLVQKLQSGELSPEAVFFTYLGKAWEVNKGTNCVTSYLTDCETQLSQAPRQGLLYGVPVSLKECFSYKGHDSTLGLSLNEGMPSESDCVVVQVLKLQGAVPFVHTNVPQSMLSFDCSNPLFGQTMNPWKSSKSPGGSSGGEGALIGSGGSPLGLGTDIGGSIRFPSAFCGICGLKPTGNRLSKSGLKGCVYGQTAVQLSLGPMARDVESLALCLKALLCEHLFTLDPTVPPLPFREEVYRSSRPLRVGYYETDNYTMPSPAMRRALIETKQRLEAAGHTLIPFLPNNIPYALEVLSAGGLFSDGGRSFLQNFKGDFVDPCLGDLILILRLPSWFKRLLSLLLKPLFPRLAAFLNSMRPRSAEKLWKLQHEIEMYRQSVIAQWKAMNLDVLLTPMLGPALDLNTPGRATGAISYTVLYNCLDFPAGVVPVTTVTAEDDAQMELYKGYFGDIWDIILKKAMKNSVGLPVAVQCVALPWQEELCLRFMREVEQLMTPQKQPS
Outline: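 Wistar rat brain membranes (5 μg protein) preincubated 15 min at 37 °C with compound at 10 μM or 0.1 μM (0.1% DMSO), then 2 μM AEA including 3H-AEA with 0.1% BSA, Tris pH 7.6, 10 min. 3H-ethanolamine counted after charcoal stop; % of no-compound control after blank subtraction.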

[2] = target: T2, FAAH (Mus musculus, UniProt O08914); assay: In vivo FAAH inhibition after oral dosing, remaining activity in liver homogenate (LVh, peripheral tissue); design: species or system NMRI mice; conditions: for In Vivo LVh 3 mg·kg 8 h (remaining FAAH activity, % of control): 8 h after dosing
T2 construct: A fragment of liver, left lung lobe and brain without cerebellum were removed; from tissue; host or cells: male NMRI mice; brain (without cerebellum) and liver homogenates
T2 sequence (O08914 1-579): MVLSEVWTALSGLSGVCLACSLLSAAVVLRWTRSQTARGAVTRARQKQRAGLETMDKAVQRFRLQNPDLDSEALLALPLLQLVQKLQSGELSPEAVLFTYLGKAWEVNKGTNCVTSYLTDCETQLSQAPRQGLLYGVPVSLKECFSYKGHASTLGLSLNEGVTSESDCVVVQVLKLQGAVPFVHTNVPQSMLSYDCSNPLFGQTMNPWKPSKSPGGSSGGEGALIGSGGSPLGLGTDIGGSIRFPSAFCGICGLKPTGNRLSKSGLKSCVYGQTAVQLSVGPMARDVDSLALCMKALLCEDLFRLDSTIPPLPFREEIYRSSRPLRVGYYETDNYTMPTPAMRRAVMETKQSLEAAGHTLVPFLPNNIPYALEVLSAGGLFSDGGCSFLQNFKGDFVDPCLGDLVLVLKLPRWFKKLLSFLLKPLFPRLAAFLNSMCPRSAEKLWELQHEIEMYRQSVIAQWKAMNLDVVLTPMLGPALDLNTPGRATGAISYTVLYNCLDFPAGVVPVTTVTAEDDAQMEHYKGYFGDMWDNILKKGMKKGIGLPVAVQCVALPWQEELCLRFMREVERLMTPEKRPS
Outline: (§1)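 Male NMRI mice, fasted overnight, got 30 or 3 mg/kg compound orally (0.5% CMC suspension or water) and were compared with vehicle controls. Brain (no cerebellum) and liver homogenates were incubated with 2 μM AEA plus 5 nM 3H-AEA at 37 °C, 10 min for brain and 7 min for liver. Remaining FAAH activity is % of vehicle after blank subtraction.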

[3] = target: T2, FAAH; assay: In vivo FAAH inhibition after oral dosing, remaining activity in brain homogenate (BRh, central nervous tissue); design: species or system NMRI mice; conditions: for In Vivo BRh 3 mg·kg 8 h (remaining FAAH activity, % of control): 8 h after dosing
Outline: as §1

[4] = target: T3, monoacylglycerol lipase (MAGL) (Rattus norvegicus, UniProt Q8R431); assay: MAGL activity in rat cerebella cytosol (CRBcyt), hydrolysis of [3H] 2-OG; format: biochemical, WISTAR rats; conditions: 12.5 uM compound, remaining MAGL activity
T3 construct: cerebella cytosol (CRBcyt) fractions, previously obtained from adult WISTAR rats; from tissue; host or cells: adult Wistar rat cerebella, cytosol fraction
T3 sequence (Q8R431 1-303): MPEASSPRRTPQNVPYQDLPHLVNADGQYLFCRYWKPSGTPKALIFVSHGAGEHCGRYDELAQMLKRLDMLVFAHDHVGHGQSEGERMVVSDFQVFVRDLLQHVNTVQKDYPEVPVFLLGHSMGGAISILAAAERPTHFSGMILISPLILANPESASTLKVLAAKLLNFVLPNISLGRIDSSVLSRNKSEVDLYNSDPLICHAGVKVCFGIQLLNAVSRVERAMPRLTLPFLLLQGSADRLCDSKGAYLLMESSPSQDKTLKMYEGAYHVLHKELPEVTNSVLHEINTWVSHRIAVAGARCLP
Experimental: (§2) FAAH inhibition was determined as described above. Inhibition of monoacylglycerol lipase (MAGL) and carboxylesterase (CE) was performed according to the protocols described below. The controls for both in vitro and in vivo were the reaction mix minus the test compounds. Therefore, a low value in Table 2 below for the test compounds indicates a strong inhibitor.
MAGL activity measurement was based on rate of hydrolysis of [^3H] 2-OG (glycerol labeled) as substrate. Briefly, cerebella cytosol (CRBcyt) fractions, previously obtained from adult WISTAR rats, were diluted to appropriate assay protein concentrations in Tris-HCl buffer (10 mM, pH 7.2) containing 1 mM EDTA, and were added to assay tubes containing test compound. Blanks contained assay buffer instead of cytosol samples were used as control. […] The final assay contained 0.125% w v^−1 fatty acid-free BSA. After the incubation phase, reactions were stopped by adding 400 μL chloroform:methanol (1/1 v v^−1), vortex mixing the tubes two times and placing them on ice. Phases were separated by centrifugation and 200 μL aliquots of the methanol/buffer phase were taken and tritium content assayed by liquid scintillation spectroscopy with quench correction.

[5] = system: carboxylesterase (CE); assay: Carboxylesterase (CE) activity in mouse liver microsomes (LVms), p-nitrophenyl acetate; format: biochemical; conditions: 10 uM compound, read 10 min after substrate, remaining CE activity
Experimental: as §2
(§3) CE activity measurement is based on the formation of p-nitrophenol from p-nitrophenyl acetate. Briefly, in 96-well plates 8 μg/ml of rat or mouse liver microsomes (LVms) were incubated with 10 μM FAAH inhibitors for 15 min and then the substrate, p-nitrophenyl acetate, was added to a final concentration of 1 mM. The plate was read at 405 nm 10 min after substrate addition for the appearance of p-nitrophenol using a spectrophotometer. The carboxylesterase activity in microsome extracts without inhibitor added were set at 100% as control and the remaining CE activities after incubation with inhibitors were calculated relative to the control.

[6] = system: carboxylesterase (CE); assay: Carboxylesterase (CE) activity in rat liver microsomes (LVms), p-nitrophenyl acetate; format: biochemical; conditions: 10 uM compound, read 10 min after substrate, remaining CE activity
Experimental: as §2, §3

[7] = liver homogenate, low value = strong inhibitor
[8] = brain homogenate, low value = strong inhibitor

Row | Compound | In Vitro 100 nM (FAAH activity, % of control) [1] | In Vivo LVh 3 mg·kg 8 h (remaining FAAH activity, % of control) [2, 7] | In Vivo BRh 3 mg·kg 8 h (remaining FAAH activity, % of control) [3, 8] | FAAH LVh 3 mg · kg · 8 h ([2]; in vivo, mouse liver, 3 mg/kg oral, 8 h, remaining enzymatic activity) | In Vivo LVh 3 mg · kg · 8 h (remaining FAAH activity) ([2]; liver homogenate, 3 mg/kg oral, 8 h, low value = strong inhibitor) | MAGL Rat CRBcyto 12.5 uM 8 min [4] | CE Mou LVms 10 uM 10 min [5] | In Vivo BRh 3 mg · kg · 8 h (remaining FAAH activity) ([3]; brain homogenate, 3 mg/kg oral, 8 h, low value = strong inhibitor) | FAAH BRh 3 mg · kg · 8 h ([3]; in vivo, mouse brain, 3 mg/kg oral, 8 h, remaining enzymatic activity) | CE Rat LVms 10 uM 10 min [6]
1 | COc1cc(-c2cn(C(=O)N3COCC3(C)C)cn2)ccc1F [Compound 351, (4,4-dimethyloxazolidin-3-yl)(4-(4-fluoro-3-methoxyphenyl)-1H-imidazol-1-yl)methanone] | 95.6 % of control | 11.7 % of control | 7.1 % of control | – | – | – | – | – | – | –
2 | CN(C(=O)n1cnc(-c2ccc3oc(=O)[nH]c3c2)c1)C1CCCC1 [Compound 564, N-cyclopentyl-N-methyl-4-(2-oxo-2,3-dihydrobenzo[d]oxazol-5-yl)-1H-imidazole-1-carboxamide] | – | – | – | 2.3 % of control | 2.3 % of control | 91.6 % of control | 87.4 % of control | 37.6 % of control | 37.6 % of control | 96.1 % of control
3 | CN(C(=O)n1cnc(-c2ccc(O)c(N)c2)c1)C1CCCCC1.Cl [Compound no. 357, 4-(3-amino-4-hydroxyphenyl)-N-cyclohexyl-N-methyl-1H-imidazole-1-carboxamide hydrochloride] | 93.9 % of control | 10.4 % of control | 111.9 % of control | – | – | – | – | – | – | –
4 | CC1(C)COCN1C(=O)n1nnc2cc(Cl)ccc21 [Compound no. 359, (5-chloro-1-benzo[d][1,2,3]triazol-1-yl)(4,4-dimethyloxazolidin-3-yl)methanone] | 1.4 % of control | 1.7 % of control | 2.5 % of control | – | – | – | – | – | – | –
5 | CC1(C)COCN1C(=O)n1nnc2c(F)cc(F)cc21 [Compound no. 360, (4,6-difluoro-1H-benzo[d][1,2,3]triazol-1-yl)(4,4-dimethyloxazolidin-3-yl)methanone] | 1.6 % of control | 3.7 % of control | 3.1 % of control | – | – | – | – | – | – | –
6 | CC1(C)COCN1C(=O)n1nnc2ccc(-c3ccccc3)cc21 [Compound no. 361, (4,4-dimethyloxazolidin-3-yl)(6-phenyl-1H-benzo[d][1,2,3]triazol-1-yl)methanone] | 1.3 % of control | 1.4 % of control | 6.3 % of control | – | – | – | – | – | – | –
7 | CN(C(=O)n1cnc(-c2ccc[n+]([O-])c2)c1)C1CCCCC1 [Compound no. 362, 3-(1-(cyclohexyl(methyl)carbamoyl)-1H-imidazol-4-yl)pyridine 1-oxide] | 78.2 % of control | 1.7 % of control | 1.6 % of control | – | – | – | – | – | – | –
